The record followed here is patent US9939427B2, “Method for evaluating the scent performance of perfumes or perfume mixtures” (Symrise AG, priority 2013, dated 2018).

Entries after “also recorded” stand apart in the source; their conditions may differ.

Holding throughout (format): cell-based
Test [1] addresses T1, OR2L8 (Homo sapiens, UniProt Q8NGY9).
T1 construct: specific primers, which amplify the complete open reading frame; expressed in transfected cells; host or cells: HEK293
T1 sequence (Q8NGY9 1-312): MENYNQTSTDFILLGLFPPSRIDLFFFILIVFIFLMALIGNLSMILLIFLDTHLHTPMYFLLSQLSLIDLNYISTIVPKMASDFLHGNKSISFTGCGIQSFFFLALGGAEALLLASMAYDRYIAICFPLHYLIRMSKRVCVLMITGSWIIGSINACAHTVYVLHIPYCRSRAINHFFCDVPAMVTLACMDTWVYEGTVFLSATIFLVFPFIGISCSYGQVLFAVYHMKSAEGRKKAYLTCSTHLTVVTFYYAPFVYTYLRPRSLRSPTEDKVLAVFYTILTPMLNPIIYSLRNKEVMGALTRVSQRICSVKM
As to the kind of experiment: Ca-imaging of OR2L8-transfected HEK293 cells. Also noted: key to OR2L8 responded to odorant: ▪: 18 olfactory receptors responded to 32 odorants in related with specific anosmia. How it is done: (§1) HEK293 cells were cultivated in Petri dishes (Ø35 mm) as previously described (Benbernou et al. 2007). We grow up HEK293 cells in culture medium containing standard DMEM with 10% heat-inactivated fetal bovine serum, 2 mM L-glutamine, 100 units/ml penicillin, and 100 units/ml streptomycin in a humidified atmosphere (37° C., 5% CO2). After 2-3 days, the transfection process was carried out, whereby the cell culture was 70-80% confluent. The calciumphosphate method was applied to transfect DNA plasmid transiently in HEK293 cells in case of Ca-imaging method.
(§2) Calcium cations and phosphate anions created crystal precipitations coupled with DNA which could invade into the cells through endocytosis. Cells were transiently transfected with plasmid DNA which consists of pCI expression vector and PCR-amplified full-length cDNA of olfactory receptors candidates, and also Gα15, RTP1, Myr-Ric8A, HSC70, and m-Cherry as cofactors. The precipitation could be created after 15-20 min, with dropping the transfection solution on HEK293 cells. Before measuring by Ca-imaging cells were incubated 48-60 hours at 370 C, 5% CO2. Cationic liposome-mediated transfection method was applied to transfect DNA plasmid transiently in HANA3A cells in case of CRE-Luciferase and CRE-SEAP assays.
(§3) Calcium imaging of the transfected HEK293 cells was done by using chambers determinate an inverted microscope (Olympus; IX70) using a 10× objective (CPIanFL N Olympus). Fluorescence emission was determined every 4 s by using a CCD camera (Charge Coupled Device, C9100 Hamamatsu). The capillary tube which was responsible to supply odorants was generated closely above the cells. The columns filled with odorants, DMSO and ATP. Odorants were manually monitored to drop each 4-5 s to transfected cells. Solutions with drop wise form spread on HEK293 cells in 35 mm dishes.
(§4) In experiments, Fura-2 Acetoxymethylester (Fura-2/AM) was applied. The non-polar Fura2/AM is fluorescent but not yet calcium-sensitive. Once diffuses into cell plasma, Fura-2/AM is hydrolyzed to Fura-2 which is calcium-sensitive and functions as Ca2+ chelator. Regardless of the presence of calcium, Fura-2 emits at the wavelength of 510 nm. Once Fura-2 binds to free intracellular Ca2+ in cell plasma, its ratio of excitation at wavelengths of 340 nm and 380 nm is changed and correlated to the amount of intracellular Ca2+. According to this feature, the analysis of 340/380 nm excitation ratio for Fura-2 allows to quantify intracellular calcium levels.
(§5) In preparation for Ca-imaging measurements, transfected HEK293 cells were added 3 it Fura2/AM (3 μM) and incubated 30-45 min at 370 C, 5% CO2. After this step, experiments were carried out in a dark condition (Fura-2 is light-sensitive). After the incubation, medium of cell culture was replaced with 2 ml Ringer's solution.
(§6) Odorants were freshly prepared with DMSO as 1 M stocks solutions. Six mixtures (200 μM each chemical) were applied to cells sequentially (20 s each mixture/30 s Ringer). Those ORs tested with single odorants that had generated a response to odorant mixture group previously. Odorants were prepared in 100-200 μM concentration.
(§7) Ringer's solution was used for washing cells between measuring by two different odorants. Positive response was determined by the timing of the response, the strength of the response (more than twofold higher than the noise amplitude of the baseline), and the shape of the response curve (sharp rise in curve with gradual recovery). The typical shape of response curves was established by observing responses to repeated stimulation with 200 μM of odorants. After testing with single odorants at 100 μM, stimulating odorants were often retested at 200 μM concentrations. To confirm the result of every receptor that produced a significant response curves, the experiment was repeated for twelve times. Finally, cells were exposed to ATP (0.25 mM) which could activate P2Y receptor channel and induce Ca2+ influx into cells. […]

Test [2] deals with T2, OR4K5 (Homo sapiens, UniProt Q8NGD3).
T2 construct: specific primers, which amplify the complete open reading frame; expressed in transfected cells; host or cells: HEK293
T2 sequence (Q8NGD3 1-323): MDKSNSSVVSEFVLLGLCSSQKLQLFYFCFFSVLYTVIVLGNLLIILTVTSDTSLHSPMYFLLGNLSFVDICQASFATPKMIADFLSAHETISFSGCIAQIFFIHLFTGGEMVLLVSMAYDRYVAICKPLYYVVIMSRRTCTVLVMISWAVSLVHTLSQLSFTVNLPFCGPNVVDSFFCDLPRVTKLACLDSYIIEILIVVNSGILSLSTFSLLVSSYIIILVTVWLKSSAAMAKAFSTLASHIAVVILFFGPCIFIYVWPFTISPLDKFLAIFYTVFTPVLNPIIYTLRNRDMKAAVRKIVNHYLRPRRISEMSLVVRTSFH
The test is described as follows: Ca-imaging of OR4K5-transfected HEK293 cells. Details: key to OR4K5 responded to odorant: ▪: 18 olfactory receptors responded to 32 odorants in related with specific anosmia. How it is done: as §1
Calcium cations and phosphate anions created crystal precipitations coupled with DNA which could invade into the cells through endocytosis. Cells were transiently transfected with plasmid DNA which consists of pCI expression vector and PCR-amplified full-length cDNA of olfactory receptors candidates, and also Gα15, RTP1, Myr-Ric8A, HSC70, and m-Cherry as cofactors. The precipitation could be created after 15-20 min, with dropping the transfection solution on HEK293 cells. Before measuring by Ca-imaging cells were incubated 48-60 hours at 370 C, 5% CO2. […]
Calcium imaging of the transfected HEK293 cells was done by using chambers determinate an inverted microscope (Olympus; IX70) using a 10× objective (CPIanFL N Olympus). Fluorescence emission was determined every 4 s by using a CCD camera (Charge Coupled Device, C9100 Hamamatsu). […] Odorants were manually monitored to drop each 4-5 s to transfected cells. […]
In experiments, Fura-2 Acetoxymethylester (Fura-2/AM) was applied. […] According to this feature, the analysis of 340/380 nm excitation ratio for Fura-2 allows to quantify intracellular calcium levels. […]
Ringer's solution was used for washing cells between measuring by two different odorants. Positive response was determined by the timing of the response, the strength of the response (more than twofold higher than the noise amplitude of the baseline), and the shape of the response curve (sharp rise in curve with gradual recovery). […]

The subject of test [3] is HEK293 cells transfected with all cofactors and pCI plasmids without ORs. As to the kind of experiment: Ca-imaging of control HEK293 cells without OR. As to conditions: odorant 200 μM, three times of measuring (Table 4, FIG. 5). How it is done: as §1, §2, §3, §4, §5, §6, §7
Test [4] concerns the target T1, OR2L8. As to the kind of experiment: CRE-luciferase assay, OR2L8 in HANA3A cells. The note with it: 50 μM, 100 μM and 150 μM; normalized to DMSO. As for the experimental part: as §2, with “assays. […]” for “assays.”
ORs responded by Ca-imaging with seven separate odorant mixtures formed from 66 odorants. […] Transfected HANA3A cells on poly-D-lysine-coated 96 well plates are ready for stimulation after 24 h. […] Measuring by plate reader (Luminometer). • 6. […] Measuring by plate reader (Luminometer). • 8. According to manufacturer's protocols for measuring luciferase and renilla activities, calculate normalized luciferase activity with using the formula (Ln-Lmin)/(Lmax-Lmin), where Ln is the luminescence of firefly in response to the odorant, L min is the minimum luciferase value on a plate, and L max is the maximum luciferase value on plate. […]

As for Ysamber K [Yasamber K], the “OR2L8 responded to odorant” value in test [1] (Ca-imaging, HEK293 cells, individual odorant 200 μM, significant response p<0.05) is listed as “▪”. In test [1] (Ca-imaging, single odorants 200 μM), the “Response of OR2L8 to odorant, in words” value is listed as “Ca2+ concentration increased; also recorded: detected”. In test [1] (odorant 200 μM, approximately 2000 transfected cells in three times of measuring (Table 4, FIG. 5)), the “Number of cell responses, Experiment (OR2L8)” value came to 10. The “OR4K5 responded to odorant” value in test [2] (HEK293 cells, individual odorant 200 μM, significant response p<0.05) is on record as “▪”. In addition, in test [2] (single odorants 200 μM), the “Response of OR4K5 to odorant, in words” value is “detected”. The “Number of cell responses, Control” value in test [3] came out at 2. In addition, the “CRE-luciferase (cAMP assay) response of OR2L8” value in test [4] is “weak response”.
